Values of other authors, collected in patent publication US6486129B1, “Antithrombotic compounds” (Akzo Nobel N.V., priority 1998, dated 2002).

Molecular target: thrombin (Homo sapiens, UniProt P00734)
Settings: background description of prior art

thrombin specificity: low thrombin specificity
Substance: Nα-(2-naphthylsulfonyl)-glycyl-4-amidinophenylaianinpiperidide [NAPAP]
